From US11384063B2, “Modulators of estrogen receptor proteolysis and associated methods of use” (Arvinas Operations, Inc., priority 2017, dated 2022) come the findings set out here.

Where two headings read alike, the source gives them in different places.

Test [1] concerns the target T1, ERα (Homo sapiens, UniProt P03372).
T1 sequence (P03372 1-595): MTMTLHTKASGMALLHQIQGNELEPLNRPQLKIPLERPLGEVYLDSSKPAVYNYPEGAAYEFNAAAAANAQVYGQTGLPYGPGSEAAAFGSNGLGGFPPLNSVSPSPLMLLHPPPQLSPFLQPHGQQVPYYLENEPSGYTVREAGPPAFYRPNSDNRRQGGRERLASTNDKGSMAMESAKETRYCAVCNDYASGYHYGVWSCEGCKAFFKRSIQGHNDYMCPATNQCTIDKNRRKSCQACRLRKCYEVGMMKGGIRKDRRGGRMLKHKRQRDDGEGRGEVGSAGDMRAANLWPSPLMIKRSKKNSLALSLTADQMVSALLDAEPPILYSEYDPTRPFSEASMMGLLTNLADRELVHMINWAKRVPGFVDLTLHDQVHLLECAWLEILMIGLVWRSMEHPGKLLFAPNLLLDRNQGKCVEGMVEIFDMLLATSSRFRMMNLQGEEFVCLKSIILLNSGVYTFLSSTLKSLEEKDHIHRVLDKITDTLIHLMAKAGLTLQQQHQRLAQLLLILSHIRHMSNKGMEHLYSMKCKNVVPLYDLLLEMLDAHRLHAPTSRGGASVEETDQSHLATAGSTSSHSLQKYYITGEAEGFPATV
Description: ERE luciferase reporter gene assay in T47D-KBluc cells (target engagement). The following applies: 10% FBS, 24 hours, read-out: ER-α Luciferase IC50. It counts as cell-based. The arrangement: T47D human breast cancer cells stably transfected with estrogen responsive element/promoter/luciferase reporter gene; host or cells: T47D-KBluc cells. In outline: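 PROTACs were tested at 12 concentrations from 300 nM down to 2 pM in 3-fold steps for 24 h on T47D-KBluc cells with a stable ERE-driven luciferase. Medium was RPMI with 10% FBS, measured at 10 pM estrogen. IC50 came from luminescence after lysis, in duplicate.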
In general terms: In a reporter assay the amount or activity of a reporter protein is the signal.

The target of test [2] is T1, ERα. Description: Estrogen receptor-alpha (ERα) degradation assay in MCF7 cells using In-Cell Western assay. The class given is cell-based. The arrangement: assessed for their activity in degrading ERα in MCF-7 cells via western blot; endogenous in cells; host or cells: MCF7 cells. The following applies: ER-alpha degradation in MCF7 cells, 5 days of incubation. The protocol:
Estrogen Receptor-Alpha (ERα) Degradation Assay Using in-Cell Western™ Assay for Table 5.
Degradation of ERα by claimed compounds were determined in MCF7 cells using an In-Cell Western™ assay. Briefly, MCF7 cells were plated in 96-well plates (2000 cells per well in 100 μl media) and incubated at 37° C. under an atmosphere of 5% CO2 in a humidified incubator overnight. One-hundred (100) μI of media containing test compound (at 2x concentration) was added to the appropriate wells to provide 11 serially decreasing concentrations (top final concentration, 1 μM then 3-fold less for the next 10 concentrations); a vehicle control (DMSO) was also added for each compound. For each experiment, all compounds were assayed on duplicate plates. Cells were then incubated for 3 or 5 days in the above-mentioned environment. The assay was terminated by removal of media, a single wash with ice-cold PBS and the addition of 50 μl paraformaldehyde (PFA: 4% in PBS). After 15 minutes in PFA at room temperature, the cells were permeabilized in Tris-phosphate-buffered saline with Tween (0.1%) (TBST) supplemented with Triton X-100 (0.5%) for 15 minutes. Cells were then blocked in BSA (TBST with BSA, 3%) for one hour. Primary antibodies for the detection of ERa (rabbit monoclonal, 1:1000, Cell Signaling Technology Catalog #8644) and tubulin (mouse monoclonal, 1:5000, Sigma Catalog #T6074) in TBST with BSA (3%) were added. The cells were incubated overnight at 4° C. The cells were then washed thrice with TBST at room temperature and then incubated with anti-rabbit and anti-mouse fluorescently-labelled secondary antibodies (IRDye®; LI-COR; Lincoln, Nebr.) in LI-COR blocking buffer (Catalog #927-50000) for one hour at room temperature. Following 3 washes with TBST, the buffer was removed and the plates were read on an Odyssey® infrared imaging system (LI-COR®, Lincoln, Nebr.) at 700 nm and 800 nm. Using commercial software (ImageStudio™; LI-COR, Lincoln, Nebr.), the staining intensity for ERa and tubulin in each well was quantified and exported for analysis. For each data point, ERa intensity was normalized to tubulin intensity and for each compound all normalized intensity values were normalized to the vehicle control. DC50 and Dmax values were determined following a 4-parameter IC50 curve fit using ACAS dose response module (McNeil & Co Inc.).

The mark [3] stands for this setting: Table 1 cereblon centric PROTACs.
The mark [4] stands for this setting: Table 3 cereblon centric PROTACs.

In the case of `O=C1CCC(N2Cc3cc(OCCOCCOc4ccc(Oc5c(-c6ccc(Br)cc6)sc6cc(O)ccc56)cc4)ccc3C2=O)C(=O)N1` (stereo not drawn) [Compound 33, 3-[5-[2-[2-[4-[2-(4-bromophenyl)-6-hydroxy-benzothiophen-3-yl]oxyphenoxy]ethoxy]ethoxy]-1-oxo-isoindolin-2-yl]piperidine-2,6-dione], on ERα [1] (setting [3]), the IC50 (as a rule, the concentration at which inhibition is half-maximal) turned out to be 2.7 nM. In addition, at ERα [2], the DC50 (in general, the concentration giving 50% degradation) lay within 1 to 10 nM and the Dmax (as a rule, the greatest extent of degradation seen) fell in the range of 50 to 75%.
For `O=C1CCC(N2Cc3cc(CNC(=O)C4CCN(CCOc5ccc(Oc6c(-c7ccc(Br)cc7)sc7cc(O)ccc67)cc5)CC4)ccc3C2=O)C(=O)N1` (stereo not drawn) [Compound 57, 1-(2-(4-(2-(4-bromophenyl)-6-hydroxybenzo[b]thiophen-3-yloxy)phenoxy)ethyl)-N-((2-(2,6-dioxopiperidin-3-yl)-1-oxoisoindolin-5-yl)methyl)piperidine-4-carboxamide], in that order: 3 nM, 1 to 10 nM and 50 to 75%.
For `O=C1CCC(N2C(=O)c3ccc(N4CCN(CCCCCOc5ccc(Oc6c(-c7ccc(Br)cc7)sc7cc(O)ccc67)cc5)CC4)cc3C2=O)C(=O)N1` (stereo not drawn) [Compound 61, 5-{4-[5-(4-{[2-(4-bromophenyl)-6-hydroxy-1-benzothiophen-3-yl]oxy}phenoxy)pentyl]piperazin-1-yl}-2-(2,6-dioxopiperidin-3-yl)-2,3-dihydro-1H-isoindole-1,3-dione], the half-maximal inhibitory concentration (IC50) at ERα [1] (setting [3]) was 18.3 nM. At ERα [2], this molecule registered a DC50 of 10 to 100 nM and a Dmax of 50 to 75%.
For `O=C1CCC(N2Cc3cc(NCCCN4CCCN(CCOc5ccc(Oc6c(-c7ccc(Br)cc7)sc7cc(O)ccc67)cc5)CC4)ccc3C2=O)C(=O)N1` (stereo not drawn) [Compound 74, 3-(5-(3-(4-(2-(4-(2-(4-bromophenyl)-6-hydroxybenzo[b]thiophen-3-yloxy)phenoxy)ethyl)-1,4-diazepan-1-yl)propylamino)-1-oxoisoindolin-2-yl)piperidine-2,6-dione], in that order: 11 nM, 1 to 10 nM and over 75%.
With `O=C1CCC(N2Cc3cc(NCCCOCCCOCCOc4ccc(Oc5c(-c6ccc(Br)cc6)sc6cc(O)ccc56)cc4)ccc3C2=O)C(=O)N1` (stereo not drawn) [Compound 89, 3-[5-[3-[3-[2-[4-[2-(4bromophenyl)-6-hydroxy-benzothiophen-3-yl]oxyphenoxy]ethoxy]propoxy]propylamino]-1-oxo-isoindolin-2-yl]piperidine-2,6-dione], the IC50 on ERα [1] (setting [3]) was 4.8 nM. On ERα [2], this molecule returned a DC50 of 1 to 10 nM and a Dmax of 50 to 75%.
On ERα [2], `O=C1CCC(N2Cc3cc(NCCCOCCCOCCCOc4ccc(Oc5c(-c6ccc(Br)cc6)sc6cc(O)ccc56)cc4)ccc3C2=O)C(=O)N1` (stereo not drawn) [Compound 94, 3-[5-[3-[3-[3-[4-[2-(4-bromophenyl)-6-hydroxy-benzothiophen-3-yl]oxyphenoxy]propoxy]propoxy]propylamino]-1-oxo-isoindolin-2-yl]piperidine-2,6-dione] had a DC50 of 1 to 10 nM and a Dmax of 50 to 75%.
As to `O=C1CCC(N2Cc3cc(NCCCOCCOCCOc4ccc(Oc5c(-c6ccc(Br)cc6)sc6cc(O)ccc56)cc4)ccc3C2=O)C(=O)N1` (stereo not drawn) [Compound 95, 3-[5-[3-[2-[2-[4[2-(4-bromophenyl)-6-hydroxy-benzothiophen-3-yl]oxyphenoxy]ethoxy]ethoxy]propylamino]-1-oxo-isoindolin-2-yl]piperidine-2,6-dione], the Dmax on ERα [2] was under 50%.
Consider `O=C1CCC(N2Cc3cc(NCCCN4CCN(CCOc5ccc(Oc6c(-c7ccc(F)cc7)sc7cc(O)ccc67)cc5)CC4)ccc3C2=O)C(=O)N1` (stereo not drawn) [Compound 174, 3-[5-[3-[4-[2-[4-[2-(4-fluorophenyl)-6-hydroxy-benzothiophen-3-yl]oxyphenoxy]ethyl]piperazin-1-yl]propylamino]-1-oxo-isoindolin-2-yl]piperidine-2,6-dione], for which the IC50 at ERα [1] (setting [4]) amounted to 0.54 nM. For the same molecule, at ERα [2], the DC50 was under 1 nM and the Dmax was over 75%.
In the same order, the values of `O=C1CCC(N2C(=O)c3ccc(NCCCN4CCN(CCOc5ccc(Oc6c(-c7ccc(Br)cc7)sc7cc(O)ccc67)cc5)CC4)cc3C2=O)C(=O)N1` (stereo not drawn) [Compound 177, 5-[3-[4-[2-[4-[2-(4-bromophenyl)-6-hydroxy-benzothiophen-3-yl]oxyphenoxy]ethyl]piperazin-1-yl]propylamino]-2-(2,6-dioxo-3-piperidyl)isoindoline-1,3-dione] are 2.3 nM, 1 to 10 nM and over 75%.
In the same order, the values of `O=C1CCC(N2C(=O)c3ccc(NCCCN4CCCN(CCOc5ccc(Oc6c(-c7ccc(Br)cc7)sc7cc(O)ccc67)cc5)CC4)cc3C2=O)C(=O)N1` (stereo not drawn) [Compound 178, 5-[3-[4-[2-[4-[2-(4-bromophenyl)-6-hydroxy-benzothiophen-3-yl]oxyphenoxy]ethyl]-1,4-diazepan-1-yl]propylamino]-2-(2,6-dioxo-3-piperidyl)isoindoline-1,3-dione] are 2.4 nM, 1 to 10 nM and over 75%.
With `O=C1CCC(N2Cc3cc(NCCCN4CCN(CCOc5ccc(Oc6c(-c7ccc(C(F)(F)F)cc7)sc7cc(O)ccc67)cc5)CC4)ccc3C2=O)C(=O)N1` (stereo not drawn) [Compound 179], the IC50 on ERα [1] (setting [4]) is 1 nM. On ERα [2], this molecule returned a DC50 of 1 to 10 nM and a Dmax of 50 to 75%.
In the case of `COc1ccc(-c2sc3cc(O)ccc3c2Oc2ccc(OCCN3CCN(CCCNc4ccc5c(c4)CN(C4CCC(=O)NC4=O)C5=O)CC3)cc2)cc1` (stereo not drawn) [Compound 180, 3-[5-[3-[4-[2-[4-[6-hydroxy-2-(4-methoxyphenyl)benzothiophen-3-yl]oxyphenoxy]ethyl]piperazin-1-yl]propylamino]-1-oxo-isoindolin-2-yl]piperidine-2,6-dione], the IC50 on ERα [1] (setting [4]) was 0.22 nM. On ERα [2], this molecule came in with a DC50 of under 1 nM and a Dmax of over 75%.
In the same order, the values of `COc1ccc2c(Oc3ccc(OCCN4CCN(CCCNc5ccc6c(c5)CN(C5CCC(=O)NC5=O)C6=O)CC4)cc3)c(-c3ccc(O)cc3)sc2c1` (stereo not drawn) [Compound 181, 3-[5-[3-[4-[2-[4-[2-(4-hydroxyphenyl)-6-methoxy-benzothiophen-3-yl]oxyphenoxy]ethyl]piperazin-1-yl]propylamino]-1-oxo-isoindolin-2-yl]piperidine-2,6-dione] are 2.2 nM, 1 to 10 nM and 50 to 75%.
For `O=C1CC[C@H](N2Cc3cc(CCN4CCCN(CCCCOc5ccc(Oc6c(-c7ccc(Br)cc7)sc7cc(O)ccc67)cc5)CC4)ccc3C2=O)C(=O)N1` [Compound 182, (3S)-3-[5-[2-[4-[4-[4-[2-(4-bromophenyl)-6-hydroxy-benzothiophen-3-yl]oxyphenoxy]butyl]-1,4-diazepan-1-yl]ethyl]-1-oxo-isoindolin-2-yl]piperidine-2,6-dione], in that order: 1.9 nM, 1 to 10 nM and over 75%.
